Patent US8222404B2, “[1,2,4]Thiadiazin-3-yl acetic acid compound and methods of making the acetic acid compound” (Anadys Pharmaceuticals, Inc., priority 2008, dated 2012)

System: HCV Huh-luc/neo-ET replicon cells
Assay: Luciferase-Based HCV Replicon Assay (EC50 (1b))
Format: cell-based
Settings: Hepatitis C virus, 72 hours exposure, luciferase activity
In short: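 EC50 (1b) derived from % inhibition of luciferase signal relative to untreated cells, background set by 100 nM BILN-2061 (protease inhibitor). Triplicate dose series added to replicon cells 24 h post-seeding; luminescence measured after 72 h compound exposure.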

Compound	EC50
CS(=O)(=O)NCc1csc2c1S(=O)(=O)N=C(C1=C(O)C3(CC3)CN(Cc3ccc(F)cc3)C1=O)N2 [Example 11, N-{3-[5-(4-Fluoro-benzyl)-8-hydroxy-6-oxo-5-aza-spiro[2.5]oct-7-en-7-yl]-1,1-dioxo-1,4-dihydro-1λ^6-thieno[2,3-e][1,2,4]thiadiazin-7-ylmethyl}-methanesulfonamide]	> 1000 nM
CS(=O)(=O)NCc1csc2c1S(=O)(=O)N=C(C1=C(O)[C@@H]3[C@@H]4CC[C@@H](C4)[C@@H]3NC1=O)N2 [Example 81, N-[3-((1S,2S,7R,8R)-6-Hydroxy-4-oxo-3-aza-tricyclo[6.2.1.0^2,7]undec-5-en-5-yl)-1,1-dioxo-1,4-dihydro-1λ^6-thieno[2,3-e][1,2,4]thiadiazin-7-ylmethyl]-methanesulfonamide]	> 1000 nM
CS(=O)(=O)NCc1csc2c1S(=O)(=O)N=C(C1=C(O)CC(C3CCCC3)N(Cc3ccc(F)cc3)C1=O)N2 (racemic) [Example 9, rac-N-{3-[6-Cyclopentyl-1-(4-fluoro-benzyl)-4-hydroxy-2-oxo-1,2,5,6-tetrahydro-pyridin-3-yl]-1,1-dioxo-1,4-dihydro-1λ^6-thieno[2,3-e][1,2,4]thiadiazin-7-ylmethyl}-methanesulfonamide]	100 to 1000 nM
CS(=O)(=O)NCc1csc2c1S(=O)(=O)N=C(C1=C(O)[C@@H]3[C@H]4CC[C@H](C4)[C@@H]3N(CCC3CC3)C1=O)N2 [Example 106, N-{3-[(1R,2S,7R,8S)-3-(2-Cyclopropyl-ethyl)-6-hydroxy-4-oxo-3-aza-tricyclo[6.2.1.0^2,7]undec-5-en-5-yl]-1,1-dioxo-1,4-dihydro-1λ^6-thieno[2,3-e][1,2,4]thiadiazin-7-ylmethyl}-methanesulfonamide]	5 to 20 nM
CS(=O)(=O)NCc1csc2c1S(=O)(=O)N=C(C1=C(O)[C@@H]3CCC[C@@H]3N(Cc3ccccc3)C1=O)N2 [Example 124, (4aR,7aS)-N-[3-(1-Benzyl-4-hydroxy-2-oxo-2,4a,5,6,7,7a-hexahydro-1H-[1]pyrindin-3-yl)-1,1-dioxo-1,4-dihydro-1λ^6-thieno[2,3-e][1,2,4]thiadiazin-7-ylmethyl]-methanesulfonamide]	5 to 20 nM
CC(C)CCN1C(=O)C(C2=NS(=O)(=O)c3c(CNS(C)(=O)=O)csc3N2)=C(O)C2CCCCC21 (racemic) [Example 132, (rac-cis)-N-{3-[4-Hydroxy-1-(3-methyl-butyl)-2-oxo-1,2,4a,5,6,7,8,8a-octahydro-quinolin-3-yl]-1,1-dioxo-1,4-dihydro-1λ^6-thieno[2,3-e][1,2,4]thiadiazin-7-ylmethyl}-methanesulfonamide]	20 to 100 nM
CS(=O)(=O)NCc1csc2c1S(=O)(=O)N=C(C1=C(O)C3CCCCCC3N(Cc3ccc(F)cc3)C1=O)N2 (racemic) [Example 120, (rac-cis)-N-{3-[1-(4-Fluoro-benzyl)-4-hydroxy-2-oxo-2,4a,5,6,7,8,9,9a-octahydro-1H-cyclohepta[b]pyridin-3-yl]-1,1-dioxo-1,4-dihydro-1λ^6-thieno[2,3-e][1,2,4]thiadiazin-7-ylmethyl}-methanesulfonamide]	20 to 100 nM
CS(=O)(=O)NCc1csc2c1S(=O)(=O)N=C(C1=C(O)[C@@H]3C4CCC(CC4)[C@@H]3N(Cc3ccc(F)cc3Cl)C1=O)N2 [Example 96, N-{3-[(2S,7R)-3-(2-Chloro-4-fluoro-benzyl)-6-hydroxy-4-oxo-3-aza-tricyclo[6.2.2.0^2,7]dodec-5-en-5-yl]-1,1-dioxo-1,4-dihydro-1λ^6-thieno[2,3-e][1,2,4]thiadiazin-7-ylmethyl}-methanesulfonamide]	20 to 100 nM
CS(=O)(=O)NCc1csc2c1S(=O)(=O)N=C(C1=C(O)C3CCCCCC3N(CC3CCCCC3)C1=O)N2 (racemic) [Example 105, (rac-cis)-N-[3-(1-Cyclohexylmethyl-4-hydroxy-2-oxo-2,4a,5,6,7,8,9,9a-octahydro-1H-cyclohepta[b]pyridin-3-yl)-1,1-dioxo-1,4-dihydro-1λ^6-thieno[2,3-e][1,2,4]thiadiazin-7-ylmethyl]-methanesulfonamide]	100 to 1000 nM
CC(C)CCN1C(=O)C(C2=NS(=O)(=O)c3c(CNS(C)(=O)=O)csc3N2)=C(O)C2C3C=CC(C3)C21 (racemic) [Example 66, (rac-di-exo)-N-{3-[6-Hydroxy-3-(3-methyl-butyl)-4-oxo-3-aza-tricyclo[6.2.1.0^2,7]undeca-5,9-dien-5-yl]-1,1-dioxo-1,4-dihydro-1λ^6-thieno[2,3-e][1,2,4]thiadiazin-7-ylmethyl}-methanesulfonamide]	5 to 20 nM
CS(=O)(=O)NCc1csc2c1S(=O)(=O)N=C(C1=C(O)[C@@H]3[C@H]4CC[C@H](C4)[C@@H]3N(Cc3ccc(F)cc3)C1=O)N2 [Example 1, (1R,2S,7R,8S)—N-{3-[3-(4-Fluoro-benzyl)-6-hydroxy-4-oxo-3-aza-tricyclo[6.2.1.0^2,7]undec-5-en-5-yl]-1,1-dioxo-1,4-dihydro-1λ^6-thieno[2,3-e][1,2,4]thiadiazin-7-ylmethyl}-methanesulfonamide]	≤ 5 nM
CS(=O)(=O)NCc1csc2c1S(=O)(=O)N=C(C1=C(O)C3C4CCC(O4)C3N(Cc3ccccc3)C1=O)N2 (racemic) [Example 45, (rac-di-exo)-N-[3-(3-Benzyl-6-hydroxy-4-oxo-11-oxa-3-aza-tricyclo[6.2.1.0^2,7]undec-5-en-5-yl)-1,1-dioxo-1,4-dihydro-1λ^6-thieno[2,3-e][1,2,4]thiadiazin-7-ylmethyl]-methanesulfonamide]	20 to 100 nM
CS(=O)(=O)NCc1csc2c1S(=O)(=O)N=C(C1=C(O)[C@@H]3C4CCC(CC4)[C@@H]3N(Cc3ccc(F)cc3F)C1=O)N2 [Example 51, N-{3-[(2S,7R)-3-(2,4-Difluoro-benzyl)-6-hydroxy-4-oxo-3-aza-tricyclo[6.2.2.0^2,7]dodec-5-en-5-yl]-1,1-dioxo-1,4-dihydro-1λ^6-thieno[2,3-e][1,2,4]thiadiazin-7-ylmethyl}-methanesulfonamide]	20 to 100 nM
Cc1cc(CN2C(=O)C(C3=NS(=O)(=O)c4c(CNS(C)(=O)=O)csc4N3)=C(O)[C@@H]3[C@@H]4CC[C@@H](C4)[C@@H]32)ccc1F [Example 56, N-{3-[(1S,2S,7R,8R)-3-(4-Fluoro-3-methyl-benzyl)-6-hydroxy-4-oxo-3-aza-tricyclo[6.2.1.0^2,7]undec-5-en-5-yl]-1,1-dioxo-1,4-dihydro-1λ^6-thieno[2,3-e][1,2,4]thiadiazin-7-ylmethyl}-methanesulfonamide]	20 to 100 nM
CS(=O)(=O)NCc1csc2c1S(=O)(=O)N=C(C1=C(O)C3C4CCC(O4)C3N(Cc3ccsc3)C1=O)N2 (racemic) [Example 61, (rac-di-exo)-N-[3-(6-Hydroxy-4-oxo-3-thiophen-3-ylmethyl-11-oxa-3-aza-tricyclo[6.2.1.0^2,7]undec-5-en-5-yl)-1,1-dioxo-1,4-dihydro-1λ^6-thieno[2,3-e][1,2,4]thiadiazin-7-ylmethyl]-methanesulfonamide]	20 to 100 nM
CS(=O)(=O)NCc1csc2c1S(=O)(=O)N=C(C1=C(O)[C@@H]3CCC[C@@H]3N(Cc3ccc(F)cc3)C1=O)N2 [Example 110, (4aR,7aS)-N-{3-[1-(4-Fluoro-benzyl)-4-hydroxy-2-oxo-2,4a,5,6,7,7a-hexahydro-1H-[1]pyrindin-3-yl]-1,1-dioxo-1,4-dihydro-1λ^6-thieno[2,3-e][1,2,4]thiadiazin-7-ylmethyl}-methanesulfonamide]	5 to 20 nM
CS(=O)(=O)NCc1csc2c1S(=O)(=O)N=C(C1=C(O)[C@@H]3[C@@H]4CC[C@@H](C4)[C@@H]3N(CC3CCCCC3)C1=O)N2 [Example 102, N-[3-((1S,2S,7R,8R)-3-Cyclohexylmethyl-6-hydroxy-4-oxo-3-aza-tricyclo[6.2.1.0^2,7]undec-5-en-5-yl)-1,1-dioxo-1,4-dihydro-1λ^6-thieno[2,3-e][1,2,4]thiadiazin-7-ylmethyl]-methanesulfonamide]	20 to 100 nM
CS(=O)(=O)NCc1csc2c1S(=O)(=O)N=C(C1=C(O)[C@@H]3[C@@H]4CC[C@@H](C4)[C@@H]3N(Cc3ccsc3)C1=O)N2 [Example 58, N-[3-((1S,2S,7R,8R)-6-Hydroxy-4-oxo-3-thiophen-3-ylmethyl-3-aza-tricyclo[6.2.1.0^2,7]undec-5-en-5-yl)-1,1-dioxo-1,4-dihydro-1λ^6-thieno[2,3-e][1,2,4]thiadiazin-7-ylmethyl]-methanesulfonamide]	5 to 20 nM
CS(=O)(=O)NCc1csc2c1S(=O)(=O)N=C(C1=C(O)[C@@H]3[C@H]4CC[C@H](C4)[C@@H]3N(Cc3ccc(F)cc3F)C1=O)N2 [Example 49, N-{3-[(1R,2S,7R,8S)-3-(2,4-Difluoro-benzyl)-6-hydroxy-4-oxo-3-aza-tricyclo[6.2.1.0^2,7]undec-5-en-5-yl]-1,1-dioxo-1,4-dihydro-1λ^6-thieno[2,3-e][1,2,4]thiadiazin-7-ylmethyl}-methanesulfonamide]	20 to 100 nM
CS(=O)(=O)NCc1csc2c1S(=O)(=O)N=C(C1=C(O)C3CCCCCC3N(Cc3ccc(F)cc3Cl)C1=O)N2 (racemic) [Example 121, (rac-cis)-N-{3-[1-(2-Chloro-4-fluoro-benzyl)-4-hydroxy-2-oxo-2,4a,5,6,7,8,9,9a-octahydro-1H-cyclohepta[b]pyridin-3-yl]-1,1-dioxo-1,4-dihydro-1λ^6-thieno[2,3-e][1,2,4]thiadiazin-7-ylmethyl}-methanesulfonamide]	> 1000 nM
CC(C)(C)CCN1C(=O)C(C2=NS(=O)(=O)c3c(CNS(C)(=O)=O)csc3N2)=C(O)C2C3CCC(O3)C21 (racemic) [Example 62, (rac-di-exo)-N-{3-[3-(3,3-Dimethyl-butyl)-6-hydroxy-4-oxo-11-oxa-3-aza-tricyclo[6.2.1.0^2,7]undec-5-en-5-yl]-1,1-dioxo-1,4-dihydro-1λ^6-thieno[2,3-e][1,2,4]thiadiazin-7-ylmethyl}-methanesulfonamide]	5 to 20 nM
CS(=O)(=O)NCc1csc2c1S(=O)(=O)N=C(C1=C(O)C3C4C=CC(C4)C3N(Cc3ccc(F)cc3)C1=O)N2 (racemic) [Example 47, (rac-di-exo)-N-{3-[3-(4-Fluoro-benzyl)-6-hydroxy-4-oxo-3-aza-tricyclo[6.2.1.0^2,7]undeca-5,9-dien-5-yl]-1,1-dioxo-1,4-dihydro-1λ^6-thieno[2,3-e][1,2,4]thiadiazin-7-ylmethyl}-methanesulfonamide]	≤ 5 nM
